Measured values from US10300053B2, “Quinoline carboxamides for use in the treatment of leukemia” (Active Biotech AB, priority 2014, dated 2019).

Tests used:
[1] = system: AL-7015-P2 leukemic cells; test: Patient Derived Xenograft (PDX) model AL-7015 of acute lymphocytic leukemia; assay type: in vivo, NOD/SCID mice
Description: Tasquinimod was tested in a Patient Derived Xenograft (PDX) model AL-7015 provided by Crown Bioscience In. (www.crownbio.com). Cells derived from a patient with B-cell ALL were used. On Day 0, NOD/SCID mice were inoculated i.v. with 70×10^6 AL-7015-P2 leukemic cells per mouse. From day 1 to termination mice were treated with tasquinimod ad lib. in the drinking water at 30 mg/kg. Mice were terminated, as soon as any sign of morbidity was observed. The median survival time for the vehicle group was 51 days, while it was 99 days for the treatment group (p<0.0001) (FIG. 2). In the treatment group, the tumor burden remained close to zero for at least 10 weeks, long after the vehicle group had reached 100% tumor burden (FIG. 3).

[2] = system: B-cell leukemia (BCL1) cells; conditions: BALB/c mice inoculated with BCL1 cells; cited from earlier work
[3] = system: AML; conditions: 0.2 mg/kg body weight twice weekly for 2 years following ABMT for AML in remission; cited from earlier work

For `COc1cccc2c1c(O)c(C(=O)N(C)c1ccc(C(F)(F)F)cc1)c(=O)n2C` [tasquinimod, 4-hydroxy-5-methoxy-N,1-dimethyl-2-oxo-N-[4-(trifluoromethyl)phenyl]-1,2-dihydroquinoline-3-carboxamide], the median survival time ([1]; 30 mg/kg ad lib. in drinking water from day 1 to termination, vehicle group 51 days, p<0.0001) was 99 days and the tumor burden ([1]; 30 mg/kg in drinking water, for at least 10 weeks, long after the vehicle group had reached 100% tumor burden) was “close to zero”.

For `CN(C(=O)c1c(O)c2ccccc2n(C)c1=O)c1ccccc1` [Roquinimex, 4-hydroxy-N, 1-dimethyl-2-oxo-N-phenyl-1,2-dihydroquinoline-3-carboxamide], the “impact on graft survival” value [2] is listed as “no impact”, the “impact on graft versus leukemia (GVL) effects” value [2] is listed as “no impact” and the “benefit over placebo regarding relapse” value [3] is listed as “no benefit”. For the same molecule, the “benefit over placebo regarding survival” value [3] was “no benefit”.
